# Measurements from BindingDB's records for PubMed 8386236 (Whitby Research, 1993).
# Assays:
# Adenosine receptor A2b = target: T1, Adenosine receptor A2b (Bos taurus, UniProt Q1LZD0)
# T1 sequence (Q1LZD0 whole entry): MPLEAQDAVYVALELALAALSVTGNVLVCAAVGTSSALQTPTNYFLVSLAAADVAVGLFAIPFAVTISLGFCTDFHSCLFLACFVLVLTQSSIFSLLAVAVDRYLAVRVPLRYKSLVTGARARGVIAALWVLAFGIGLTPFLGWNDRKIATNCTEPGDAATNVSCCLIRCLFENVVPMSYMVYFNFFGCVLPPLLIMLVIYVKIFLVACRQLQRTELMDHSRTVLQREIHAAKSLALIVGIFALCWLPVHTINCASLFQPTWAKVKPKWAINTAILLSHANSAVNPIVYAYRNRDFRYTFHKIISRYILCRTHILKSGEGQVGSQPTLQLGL
# Adenosine receptor A2a = Adenosine receptor A2a (Cavia porcellus, UniProt P46616)
# Sequence of Adenosine receptor A2a (P46616 whole entry): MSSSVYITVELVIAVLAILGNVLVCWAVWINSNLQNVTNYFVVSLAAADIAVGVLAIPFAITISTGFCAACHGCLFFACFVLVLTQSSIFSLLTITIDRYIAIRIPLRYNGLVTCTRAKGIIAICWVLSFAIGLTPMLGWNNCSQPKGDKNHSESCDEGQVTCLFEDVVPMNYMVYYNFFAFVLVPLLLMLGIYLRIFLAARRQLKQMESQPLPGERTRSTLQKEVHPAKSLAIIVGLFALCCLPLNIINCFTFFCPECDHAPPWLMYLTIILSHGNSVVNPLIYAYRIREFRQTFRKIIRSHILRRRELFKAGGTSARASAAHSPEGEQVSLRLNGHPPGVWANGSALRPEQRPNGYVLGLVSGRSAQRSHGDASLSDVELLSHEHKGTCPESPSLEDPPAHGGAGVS
# Adenosine receptor A1 [1] = target: T2, Adenosine receptor A1 (Bos taurus, UniProt P28190)
# T2 sequence (P28190 whole entry): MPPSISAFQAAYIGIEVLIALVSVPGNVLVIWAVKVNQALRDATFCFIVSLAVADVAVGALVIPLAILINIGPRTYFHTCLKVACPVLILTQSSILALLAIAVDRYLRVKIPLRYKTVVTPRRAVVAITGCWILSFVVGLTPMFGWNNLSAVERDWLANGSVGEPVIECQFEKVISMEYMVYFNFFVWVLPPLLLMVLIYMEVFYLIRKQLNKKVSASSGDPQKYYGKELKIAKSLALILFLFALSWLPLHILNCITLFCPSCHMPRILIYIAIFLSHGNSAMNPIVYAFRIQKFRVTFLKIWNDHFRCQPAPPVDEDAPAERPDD
# Adenosine receptor A1 [2] = target: T3, Adenosine receptor A1 (Cavia porcellus, UniProt P47745)
# T3 sequence (P47745 whole entry): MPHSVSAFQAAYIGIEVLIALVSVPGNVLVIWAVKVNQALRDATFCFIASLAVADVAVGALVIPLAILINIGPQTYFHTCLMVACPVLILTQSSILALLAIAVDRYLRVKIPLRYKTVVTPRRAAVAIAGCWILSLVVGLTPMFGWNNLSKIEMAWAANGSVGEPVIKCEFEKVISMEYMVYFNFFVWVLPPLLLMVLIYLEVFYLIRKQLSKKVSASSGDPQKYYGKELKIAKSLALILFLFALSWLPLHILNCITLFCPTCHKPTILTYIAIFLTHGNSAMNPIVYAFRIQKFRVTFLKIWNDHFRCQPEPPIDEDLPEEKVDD
Ki (Adenosine receptor A2b) [µM],Ki (Adenosine receptor A2a) [µM],Ki (Adenosine receptor A1 [1]) [µM],Ki (Adenosine receptor A1 [2]) [µM],Structure (SMILES)
6.92,> 10,,,Nc1nc(Cl)nc2c1ncn2[C@@H]1O[C@H](CO)[C@@H](O)[C@H]1O [2-CI Adenosine]
,,0.0182,1.95,CC(Cc1ccccc1)Nc1ncnc2c1ncn2C1OC(CO)C(O)C1O (centres undefined) [R-N6-(2-phenylisopropyl) adenosine]
